Source: the supplement of paper PMC10331698
± gives the standard deviation of the averaged measurements.

Columns and labels:
Assay in all cases: level (log10 ratio to DMSO vehicle control); higher = higher biomarker level / cell amount than vehicle control
Conditions in all cases: in DMSO
[1] = compound: C=CC(=O)OCCC(F)(F)C(F)(F)C(F)(F)C(F)(F)C(F)(F)C(F)(F)C(F)(F)C(F)(F)F [8:2 Fluorotelomer acrylate]
Procedure: (§1)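 BioMAP Diversity Plus panel of 12 human primary cell co-culture systems (3C, 4H, LPS, SAg, BT, BF4T, BE3C, CASM3C, HDF3CGF, KF3CT, MyoF, Mphg). Compounds were added 1 h before stimulation and left for 24 h (MyoF 48 h; BT 72 h for soluble read-outs or 6 d for IgG). Biomarkers were read by ELISA, cytotoxicity by SRB, PBMC viability and proliferation by Alamar Blue. Each well value was divided by the mean of 8 DMSO control wells on the same plate and log10 transformed; duplicate blinded samples were tested at 4 concentrations.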

Methotrexate = compound: CN(Cc1cnc2nc(N)nc(N)c2n1)c1ccc(C(=O)N[C@@H](CCC(=O)O)C(=O)O)cc1 [Methotrexate]
Procedure: as §1

[2] = compound: O=P(O)(O)CCC(F)(F)C(F)(F)C(F)(F)C(F)(F)C(F)(F)C(F)(F)F [2-(Perfluorohexyl)ethylphosphonic acid]
Procedure: as §1

[3] = compound: O=S(=O)(OCC(F)(F)F)C(F)(F)C(F)(F)C(F)(F)C(F)(F)F [2,2,2-Trifluoroethyl perfluorobutanesulfonate]
Procedure: as §1

Perfluoropinacol = compound: OC(C(F)(F)F)(C(F)(F)F)C(O)(C(F)(F)F)C(F)(F)F [Perfluoropinacol]
Procedure: as §1

[4] = compound: OCCCCC(F)(F)C(F)(F)C(F)(F)C(F)(F)F [4:4 Fluorotelomer alcohol]
Procedure: as §1

Test System | level (log10) ([1]; 6700 nM) | level (log10) ([1]; 20000 nM) | level (log10) ([1]; 60000 nM) | level (log10) (Methotrexate; 1500 nM) | level (log10) (Methotrexate; 4400 nM) | level (log10) (Methotrexate; 13000 nM) | level (log10) (Methotrexate; 40000 nM) | level (log10) ([2]; 6700 nM) | level (log10) ([2]; 20000 nM) | level (log10) ([2]; 60000 nM) | level (log10) ([3]; 6700 nM) | level (log10) ([3]; 20000 nM) | level (log10) ([3]; 60000 nM) | level (log10) (Perfluoropinacol; 6700 nM) | level (log10) (Perfluoropinacol; 20000 nM) | level (log10) ([4]; 6700 nM) | level (log10) ([4]; 20000 nM) | level (log10) ([4]; 60000 nM)
BF4T:CD54/ICAM-1 | -0.0145 ± 0.013 | -0.026 ± 0.0042 | -0.0285 ± 0.026 | 0.001 ± 0.0099 | -0.0135 ± 0.019 | 0.009 ± 0.0085 | 0.0095 ± 0.011 | -0.022 ± 0.018 | -0.0245 ± 0.00071 | -0.0125 ± 0.0092 | -0.0115 ± 0.016 | -0.014 ± 0.037 | -0.0295 ± 0.016 | -0.0015 ± 0.011 | -0.018 ± 0.0028 | -0.0055 ± 0.0035 | -0.0085 ± 0.011 | 0.0025 ± 0.0021
SAg:CD40 | -0.0085 ± 0.00071 | -0.0075 ± 0.0021 | -0.01 ± 0.017 | -0.02 ± 0.0042 | -0.0525 ± 0.018 | -0.0055 ± 0.079 | -0.0305 ± 0.088 | 0.007 ± 0.0028 | 0.0015 ± 0.00071 | -0.026 ± 0.0099 | -0.0165 ± 0.018 | -0.019 ± 0.017 | -0.0635 ± 0.049 | -0.021 ± 0.016 | -0.146 ± 0.013 | 0.01 ± 0.016 | 0.014 ± 0.0042 | 0.005 ± 0.0042
SAg:PBMC Cytotoxicity | -0.01 ± 0.013 | -0.006 ± 0.027 | -0.0005 ± 0.05 | -0.001 ± 0.017 | 0.0015 ± 0.023 | 0.011 ± 0.018 | 0.0005 ± 0.0035 | -0.019 ± 0.023 | 0.012 ± 0.037 | -0.0165 ± 0.026 | 0.0065 ± 0.011 | -0.013 | 0.012 ± 0.0057 | 0.046 ± 0.033 | 0.0855 ± 0.0021 | -0.0115 ± 0.015 | 0.014 ± 0.011 | 0.0195 ± 0.03
SAg:CCL2/MCP-1 | -0.0115 ± 0.00071 | -0.023 ± 0.013 | -0.0085 ± 0.036 | -0.0055 ± 0.12 | -0.037 ± 0.028 | -0.009 ± 0.024 | -0.0075 ± 0.05 | 0.0075 ± 0.0092 | -0.006 ± 0.016 | 0.041 | 0.0045 ± 0.0064 | 0.0045 ± 0.019 | 0.0405 ± 0.033 | 0.078 ± 0.018 | -0.096 ± 0.0085 | -0.009 ± 0.018 | -0.002 ± 0.0042 | -0.008 ± 0.027
4H:CD106/VCAM-1 | -0.0045 ± 0.035 | -0.023 ± 0.051 | -0.0255 ± 0.026 | -0.0045 ± 0.018 | -0.0095 ± 0.0021 | 0.005 ± 0.028 | -0.0005 ± 0.011 | 0.0205 ± 0.0064 | 0.025 ± 0.0085 | -0.01 ± 0.0028 | -0.004 ± 0.025 | -0.008 ± 0.014 | 0.0015 ± 0.0021 | -0.043 ± 0.018 | -0.22 ± 0.02 | 0 ± 0.0057 | -0.01 ± 0.0028 | 0.005 ± 0.0028
SAg:CD38 | -0.001 ± 0.0085 | -0.003 ± 0.0071 | -0.004 ± 0.013 | 0.037 ± 0.0099 | -0.0175 ± 0.005 | 0.031 ± 0.0085 | 0.006 ± 0.028 | 0.018 | 0.0025 ± 0.016 | -0.0055 ± 0.011 | -0.0185 ± 0.0092 | -0.012 ± 0.0071 | -0.0475 ± 0.032 | -0.012 ± 0.021 | -0.113 ± 0.023 | -0.001 ± 0.028 | -0.0075 ± 0.018 | -0.0165 ± 0.023
LPS:SRB | 0.0015 ± 0.0021 | -0.005 ± 0.0014 | 0.004 ± 0.0042 | -0.0005 ± 0.013 | 0.001 | 0.0015 ± 0.00071 | 0.005 ± 0.011 | -0.003 ± 0.0057 | -0.006 ± 0.0028 | -0.023 ± 0.021 | 0.007 ± 0.0014 | -0.0035 ± 0.0092 | -0.004 ± 0.0071 | -0.0265 ± 0.0021 | -0.151 ± 0.0064 | 0.02 ± 0.0057 | 0.022 ± 0.024 | 0.017 ± 0.033
